Data on 20 compounds can be found in patent US9796711B2, “Substituted pyrazolo[3,4-b]pyridin-6-carboxylic acids and method of use” (AbbVie S.àr.l., priority 2015, dated 2017).

The target in assay [1] is T1, ΔF508-CFTR (Homo sapiens, UniProt P13569, DEL508-508).
T1 construct: host or cells: CFBE41o-, doxycycline-inducible
Description: CFTR cell surface levels using HRP-tagged ΔF508-CFTR expressing CFBE cells, in the presence of a co-corrector. The note with it: HRP-tagged ΔF508-CFTR expressing CFBE cells, in the presence of 3 μM co-corrector; for EC50: read-out: EC50. It counts as cell-based. Put shortly:
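Cells were seeded with 0.5 μg/mL doxycycline and held 68 h at 37 °C. Test compounds plus 3 μM co-corrector (final 0.1% DMSO) were then added for 20 h at 33 °C. Washed cells received HRP substrate, and luminescence was normalized between DMSO and 3 μM co-corrector controls.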

Assay [2] concerns the target T1, ΔF508-CFTR. Description: CFTR cell surface levels using HRP-tagged ΔF508-CFTR expressing CFBE cells, intrinsic corrector capacity. The format is cell-based. As to conditions: for EC50: read-out: EC50. Put shortly: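 Here the cells express ΔF508-CFTR with horseradish peroxidase inserted in extracellular loop 4, so only rescued channel at the surface gives luminescent signal. Compounds act on their own, 20 h at the reduced temperature of 33 °C; values are percent activity relative to DMSO and a 3 μM corrector.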

Setting [3] is: HRP-tagged ΔF508-CFTR expressing CFBE cells, intrinsic corrector capacity (no co-corrector), 33° C., 20 hours.
Where [4] appears, read: HRP-tagged ΔF508-CFTR CFBE41o- cells, compounds alone (intrinsic corrector capacity), 20 hours at 33° C., positive control 3 μM corrector.
Setting [5] is: HRP-tagged ΔF508-CFTR CFBE41o- cells, compounds alone (intrinsic corrector capacity), 20 hours at 33° C.

For orientation: EC50 means the concentration at which the effect is half-maximal.

SMILES strings stand for the structures.

T1 sequence (P13569 with tags, fused parts or gaps DEL508-508): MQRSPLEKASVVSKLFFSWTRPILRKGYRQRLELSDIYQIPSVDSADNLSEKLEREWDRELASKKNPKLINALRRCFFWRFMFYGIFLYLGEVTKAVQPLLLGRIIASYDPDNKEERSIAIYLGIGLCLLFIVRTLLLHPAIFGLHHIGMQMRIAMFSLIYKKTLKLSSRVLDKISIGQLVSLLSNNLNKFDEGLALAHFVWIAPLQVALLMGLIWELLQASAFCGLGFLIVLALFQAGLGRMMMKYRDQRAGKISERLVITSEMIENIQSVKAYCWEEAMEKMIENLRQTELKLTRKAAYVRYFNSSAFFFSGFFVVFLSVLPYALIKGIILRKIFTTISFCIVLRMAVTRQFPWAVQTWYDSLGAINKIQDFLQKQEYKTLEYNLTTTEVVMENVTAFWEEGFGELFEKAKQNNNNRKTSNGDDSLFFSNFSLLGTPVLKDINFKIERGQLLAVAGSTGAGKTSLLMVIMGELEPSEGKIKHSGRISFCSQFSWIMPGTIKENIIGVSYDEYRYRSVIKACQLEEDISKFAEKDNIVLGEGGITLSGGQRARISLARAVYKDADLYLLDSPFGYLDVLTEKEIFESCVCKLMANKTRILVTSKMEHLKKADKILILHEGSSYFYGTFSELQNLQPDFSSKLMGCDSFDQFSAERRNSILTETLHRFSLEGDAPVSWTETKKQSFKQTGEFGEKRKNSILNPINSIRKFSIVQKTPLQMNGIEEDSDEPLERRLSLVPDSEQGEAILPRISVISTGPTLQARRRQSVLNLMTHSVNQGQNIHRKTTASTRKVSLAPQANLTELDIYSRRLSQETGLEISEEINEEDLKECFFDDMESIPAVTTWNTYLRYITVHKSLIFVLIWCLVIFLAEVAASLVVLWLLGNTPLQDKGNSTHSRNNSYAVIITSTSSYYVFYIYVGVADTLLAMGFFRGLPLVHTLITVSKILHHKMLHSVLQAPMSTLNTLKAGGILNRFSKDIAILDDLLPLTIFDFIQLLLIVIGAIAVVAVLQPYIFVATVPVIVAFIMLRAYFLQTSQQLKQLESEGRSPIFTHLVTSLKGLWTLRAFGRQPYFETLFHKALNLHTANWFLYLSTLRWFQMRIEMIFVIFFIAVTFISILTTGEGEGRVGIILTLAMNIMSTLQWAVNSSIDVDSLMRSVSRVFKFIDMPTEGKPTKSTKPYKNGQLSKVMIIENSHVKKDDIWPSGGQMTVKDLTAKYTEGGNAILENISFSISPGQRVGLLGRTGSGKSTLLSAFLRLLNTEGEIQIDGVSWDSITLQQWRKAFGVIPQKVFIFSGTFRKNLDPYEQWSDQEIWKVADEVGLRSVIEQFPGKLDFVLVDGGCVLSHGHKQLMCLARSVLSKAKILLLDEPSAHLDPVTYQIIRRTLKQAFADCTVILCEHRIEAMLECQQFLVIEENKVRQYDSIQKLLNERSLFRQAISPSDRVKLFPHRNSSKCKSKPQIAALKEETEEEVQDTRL

Take `CNC[C@@H]1CCN(c2cc(C(=O)O)nc3c2c(C2CCC2)nn3-c2ccccc2)C1` [compound 676, 3-cyclobutyl-4-{(3S)-3-[(methylamino)methyl]pyrrolidin-1-yl}-1-phenyl-1H-pyrazolo[3,4-b]pyridine-6-carboxylic acid]: at ΔF508-CFTR [1], the “% Activation” value amounted to 164.55% and the EC50 was found to be 0.892 µM. On ΔF508-CFTR [2] (setting [3]), the “% Activation” value came out at 35.03% and the EC50 amounted to 5 µM.
On to `Cc1nn(-c2ccccc2)c2nc(C(=O)O)cc(OC3CC4(COC4)C3)c12` [compound 344, 3-methyl-4-[(2-oxaspiro[3.3]heptan-6-yl)oxy]-1-phenyl-1H-pyrazolo[3,4-b]pyridine-6-carboxylic acid], for which the “% Activation” value on ΔF508-CFTR [1] was determined as 218.25%; at ΔF508-CFTR [2] (setting [4]), 69.225%. The EC50 at ΔF508-CFTR [1] turned out to be 1.77 µM; on ΔF508-CFTR [2] (setting [5]), 2.51 µM.
In the same order, the values of `CN(c1ccc(-c2cc(C(=O)O)nc3c2c(C2CCC2)nn3-c2cccc(N3CCCC3)c2)cn1)C1CCOCC1` [compound 252, 3-cyclobutyl-4-{6-[methyl(oxan-4-yl)amino]pyridin-3-yl}-1-[3-(pyrrolidin-1-yl)phenyl]-1H-pyrazolo[3,4-b]pyridine-6-carboxylic acid] are 630.25%, 398.4%, 0.505 µM and 0.698 µM.
In the same order, the values of `Cc1nn(-c2ccccc2)c2nc(C(=O)O)cc(-c3ccc(N4CCN(CCC(F)(F)F)CC4)cc3)c12` [compound 82, 3-methyl-1-phenyl-4-{4-[4-(3,3,3-trifluoropropyl)piperazin-1-yl]phenyl}-1H-pyrazolo[3,4-b]pyridine-6-carboxylic acid] are 335.65%, 135.95%, 0.971 µM and 1.01 µM.
In the same order, the values of `Cc1nn(-c2ccccc2)c2nc(C(=O)O)cc(-c3ccc(N4CCC(F)(F)CC4)cc3)c12` [compound 108, 4-[4-(4,4-difluoropiperidin-1-yl)phenyl]-3-methyl-1-phenyl-1H-pyrazolo[3,4-b]pyridine-6-carboxylic acid] are 329.7%, 145.5%, 0.752 µM and 0.904 µM.
For `CC(C)c1nn(C2CCCCC2)c2nc(C(=O)O)cc(-c3cccn3C)c12` [compound 362, 1-cyclohexyl-4-(1-methyl-1H-pyrrol-2-yl)-3-(propan-2-yl)-1H-pyrazolo[3,4-b]pyridine-6-carboxylic acid], the figures for the “% Activation” value at ΔF508-CFTR [1] and on ΔF508-CFTR [2] (setting [4]) were 170.85% and 44.405%, respectively. Also, the values for the EC50 at ΔF508-CFTR [1] and on ΔF508-CFTR [2] (setting [5]) were 1.8 µM and 2.03 µM, respectively.
As to `Cc1nn(-c2ccccc2)c2nc(C(=O)O)cc(-c3ccc(NC4CCC4)cc3)c12` [compound 96, 4-[4-(cyclobutylamino)phenyl]-3-methyl-1-phenyl-1H-pyrazolo[3,4-b]pyridine-6-carboxylic acid], the figures for the “% Activation” value at ΔF508-CFTR [1] and at ΔF508-CFTR [2] (setting [4]) were 329.75% and 141.5%, respectively. Further, the EC50 came to 1.2 µM at ΔF508-CFTR [1] and 1.53 µM at ΔF508-CFTR [2] (setting [5]).
In the same order, the values of `O=C(O)c1cc(-c2ccc(N3CCOCC3)cc2)c2c(C3CCC3)nn(-c3cccc(C(F)(F)F)c3)c2n1` [compound 354, 3-cyclobutyl-4-[4-(morpholin-4-yl)phenyl]-1-[3-(trifluoromethyl)phenyl]-1H-pyrazolo[3,4-b]pyridine-6-carboxylic acid] are 429.9%, 212.07%, 0.323 µM and 0.45 µM.
`COCC(C)N1CCN(c2cc(C(=O)O)nc3c2c(C2CCC2)nn3-c2ccccc2)CC1` (centres unmarked) [compound 682, 3-cyclobutyl-4-[4-(1-methoxypropan-2-yl)piperazin-1-yl]-1-phenyl-1H-pyrazolo[3,4-b]pyridine-6-carboxylic acid]: the “% Activation” value on ΔF508-CFTR [1] came to 368.9%; at ΔF508-CFTR [2] (setting [3]), 172.9%. The results for the half-maximal effective concentration (EC50) on ΔF508-CFTR [1] and at ΔF508-CFTR [2] (setting [3]) were 0.116 µM and 0.18 µM, respectively.
In the same order, the values of `COCC1(C)CN(c2cc(C(=O)O)nc3c2c(C2CCC2)nn3-c2ccccc2)C1` [compound 521, 3-cyclobutyl-4-[3-(methoxymethyl)-3-methylazetidin-1-yl]-1-phenyl-1H-pyrazolo[3,4-b]pyridine-6-carboxylic acid] are 216.55%, 58.57%, 0.29 µM and 0.488 µM.
In the same order, the values of `O=C(O)c1cc(OC2CCC(F)(F)CC2)c2c(C3CCC3)nn(-c3ccccc3)c2n1` [compound 578, 3-cyclobutyl-4-[(4,4-difluorocyclohexyl)oxy]-1-phenyl-1H-pyrazolo[3,4-b]pyridine-6-carboxylic acid] are 301.55%, 118.2%, 0.224 µM and 0.334 µM.
As to `CCCCN1CCCN(c2cc(C(=O)O)nc3c2c(C(C)C)nn3-c2ccc(F)cc2)CC1` [compound 768, 4-(4-butyl-1,4-diazepan-1-yl)-1-(4-fluorophenyl)-3-(propan-2-yl)-1H-pyrazolo[3,4-b]pyridine-6-carboxylic acid], on ΔF508-CFTR [1], the “% Activation” value is 256.5% and the EC50 turned out to be 1.67 µM. Moreover, on ΔF508-CFTR [2] (setting [3]), the “% Activation” value came out at 79.69% and the EC50 was 1.58 µM.
In the same order, the values of `O=C(O)c1cc(N2CCC(C(F)CO)CC2)c2c(C3CCC3)nn(-c3ccccc3)c2n1` (centres unmarked) [compound 520, 3-cyclobutyl-4-[4-(1-fluoro-2-hydroxyethyl)piperidin-1-yl]-1-phenyl-1H-pyrazolo[3,4-b]pyridine-6-carboxylic acid] are 450.25%, 0.241 µM, 213.9% and 0.583 µM.
For `CN(c1cc(C(=O)O)nc2c1c(C1CCC1)nn2-c1ccccc1)[C@H]1C[C@@H](O)C1` [compound 533, 3-cyclobutyl-4-[(cis-3-hydroxycyclobutyl)(methyl)amino]-1-phenyl-1H-pyrazolo[3,4-b]pyridine-6-carboxylic acid], the “% Activation” value on ΔF508-CFTR [1] is listed as 315.85%; at ΔF508-CFTR [2] (setting [3]) it was 114.5%. The EC50 turned out to be 1.23 µM on ΔF508-CFTR [1] and 3.21 µM at ΔF508-CFTR [2] (setting [3]).
In the same order, the values of `CO[C@H]1CCN(c2cc(C(=O)O)nc3c2c(C2CCC2)nn3-c2ccccc2)C1` [compound 512, 3-cyclobutyl-4-[(3S)-3-methoxypyrrolidin-1-yl]-1-phenyl-1H-pyrazolo[3,4-b]pyridine-6-carboxylic acid] are 286.4%, 103%, 1.42 µM and 1.17 µM.
As to `Cc1cccc(-n2nc(C(C)C)c3c(N4CC5CN(CC#N)CC5C4)cc(C(=O)O)nc32)c1` (centres unmarked) [compound 226, 4-[5-(cyanomethyl)hexahydropyrrolo[3,4-c]pyrrol-2(1H)-yl]-1-(3-methylphenyl)-3-(propan-2-yl)-1H-pyrazolo[3,4-b]pyridine-6-carboxylic acid], the results for the “% Activation” value at ΔF508-CFTR [1] and on ΔF508-CFTR [2] (setting [4]) were 352.2% and 189.05%, respectively. The EC50 at ΔF508-CFTR [1] was determined as 1.35 µM; at ΔF508-CFTR [2] (setting [5]) it was 3.34 µM.
For the compound `CCN1CCN(c2cc(C(=O)O)nc3c2c(C(C)C)nn3-c2ccc(F)cc2)CC1` [compound 772, 4-(4-ethylpiperazin-1-yl)-1-(4-fluorophenyl)-3-(propan-2-yl)-1H-pyrazolo[3,4-b]pyridine-6-carboxylic acid], at ΔF508-CFTR [1], the “% Activation” value came to 226.6% and the EC50 was 1.36 µM. On ΔF508-CFTR [2] (setting [3]), the “% Activation” value was 53.82% and the EC50 worked out at 1.67 µM.
As for `CC(C)c1nn(-c2cccc(N(C)C)c2)c2nc(C(=O)O)cc(N3CCCCC3)c12` [compound 328, 1-[3-(dimethylamino)phenyl]-4-(piperidin-1-yl)-3-(propan-2-yl)-1H-pyrazolo[3,4-b]pyridine-6-carboxylic acid], the results for the “% Activation” value at ΔF508-CFTR [1] and on ΔF508-CFTR [2] (setting [4]) were 422.25% and 196.9%, respectively. Further, the EC50 amounted to 0.463 µM at ΔF508-CFTR [1] and 0.671 µM on ΔF508-CFTR [2] (setting [5]).
`CCN1CCCN(c2cc(C(=O)O)nc3c2c(C(C)C)nn3-c2ccc(F)cc2)CC1` [compound 797, 4-(4-ethyl-1,4-diazepan-1-yl)-1-(4-fluorophenyl)-3-(propan-2-yl)-1H-pyrazolo[3,4-b]pyridine-6-carboxylic acid]: on ΔF508-CFTR [1], the “% Activation” value is listed as 178.6% and the concentration giving a half-maximal response (EC50) was 1.67 µM. At ΔF508-CFTR [2] (setting [3]), the “% Activation” value is reported as 31.52% and the EC50 is 5 µM.
As for `Cc1nn(-c2ccccc2)c2nc(C(=O)O)cc(N3CCN(CC#N)CC3)c12` [compound 136, 4[4-(cyanomethyl)piperazin-1-yl]-3-methyl-1-phenyl-1H-pyrazolo[3,4-b]pyridine-6-carboxylic acid], the “% Activation” value on ΔF508-CFTR [1] is 189.95%; on ΔF508-CFTR [2] (setting [4]), 40.405%. For the same compound, the EC50 at ΔF508-CFTR [1] and at ΔF508-CFTR [2] (setting [5]) was 3.34 µM each time.
